From patent US5244883A, “Nonapeptide bombesin antagonists” (The Administrators of the Tulane Educational Fund, priority 1990, dated 1993)
Where a SMILES comes first, the peptide text is derived from it. [ ]: non-standard residue; d: D form. The star is where a group is joined. His(τ-Bzl) = N[C@@H](Cc1cn(Cc2ccccc2)cn1)C(=O)O; X2 = CC(C)C[C@@H](CN[C@@H](CC(C)C)C(N)=O)N*; dTpi = O=C(O)[C@H]1Cc2c([nH]c3ccccc23)CN1

Biological target: T1, GRP receptors on Swiss 3T3 cells (Mus musculus, UniProt P21729)
T1 construct: conducted in 24-well tissue culture plates (GIBCO) using Swiss 3T3 cells; endogenous in cells; host or cells: Murine Swiss 3T3 fibroblasts (intact confluent, quiescent cells)
T1 sequence (P21729 whole entry): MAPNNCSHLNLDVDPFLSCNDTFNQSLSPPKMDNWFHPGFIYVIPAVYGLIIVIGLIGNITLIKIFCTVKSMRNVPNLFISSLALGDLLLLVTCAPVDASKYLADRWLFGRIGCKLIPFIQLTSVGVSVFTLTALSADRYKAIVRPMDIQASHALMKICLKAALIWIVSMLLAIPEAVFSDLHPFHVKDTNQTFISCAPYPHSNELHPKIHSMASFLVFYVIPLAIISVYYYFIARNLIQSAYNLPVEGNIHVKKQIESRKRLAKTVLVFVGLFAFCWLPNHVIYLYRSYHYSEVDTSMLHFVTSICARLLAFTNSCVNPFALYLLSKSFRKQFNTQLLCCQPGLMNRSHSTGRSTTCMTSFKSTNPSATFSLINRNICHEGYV
Assay: Receptor binding assay: displacement of 125I-GRP(14-27) on Swiss 3T3 cells
Design: species or system Murine
Conditions: for Kd / Ka: 0.2 nM 125I-GRP(14-27), Swiss 3T3 cells, 37° C. 30 min; for IC50: calculated by Cheng and Prussoff equation IC50=Kc(1+L/Kh), 0.2 nM radioligand; for Ka: association constant, N.D.=NO DISPLACEMENT
Procedure: (A) Receptor Binding Assay
Binding of ^125 I-GRP(14-27) and displacement by bombesin antagonists were conducted in 24-well tissue culture plates (GIBCO) using Swiss 3T3 cells. Murine Swiss 3T3 fibroblasts were maintained by weekly passage in DMEM containing 10% FCBS and antimycotics. Cultures were incubated in 5% CO2 in air at 37° C. The wells were seeded with 10^5 cells/well (viability >95%), grown to confluence and quiescency. The binding procedure was conducted 7 days after seeding. The cells were washed 2 times with 0.5 ml of binding buffer (Dulbecco's modified Eagle's medium containing […] (pH 7.4), 0.2% BSA and 100 mcg/ml bacitracin). The cells were then incubated with 0.2 nM ^125 I-GRP (14-27) in the presence or absence of different concentrations of antagonists (6×10^-11 -6×10^-6 M, total volume 0.4 ml).
According to Zachary and Rozengurt (1985) and Layton et al., (1988), binding of ^125 I-GRP at 37° C. reached a maximum value at 30 min and decreased afterwards; so, the cells were incubated at 37° C. for 30 min. After that, the cells were washed 2 times with ice-cold (4° C.) binding buffer and 2 times with the ice-cold phosphate-buffered saline (PBS,mM): NaCl 138, KCl 2.8, Na2 HPO4 8, KH2 PO4 1.45, CaCl2 0.91, MgCl2 0.49. Washed cultures were extracted in 0.5 ml of 0.5M NaOH and transferred to tubes for counting. The wells were washed once with 0.5 ml distilled water (sterile), and the washing were added to the appropriate tubes. Then the radio-activity of the samples was counted in an automatic gamma counter (Micromedic System, Inc., Huntsville, Ala.).
The Ligand - PC computerized curve fitting program of Munson and Rodbard was used to determine the types of receptor binding, dissociation constant (Kd), association constant (Ka), the maximal binding capacity of receptors (Bmax) and half-maximal inhibition (IC50).
IC50 values represent concentrations of antagonists causing half-maximal inhibition of 0.2 nM GRP(14-27) stimulated growth. Dissociation constant and maximal binding capacity of ^125 I-GRP (14-27) in our experiments were 1.32 nm and 0.769 pm/mg protein, respectively, which were similar to those reported for ^125 I-GRP and ^125 I-Tyr^4 -bombesin. Binding characteristics of GRP receptors on 3T3 cells in these experiments agree well with values obtained for bombesin binding to pancreatic acinar (Jensen et al., 1978) and pituitary cells (Westendorf and Schonbrunn, 1983).
IC50 is the concentration of unlabelled ligand that displaced half the specific radioligand binding. It is calculated according to the equation of Cheng and Prussoff (1973): IC50 =Kc (1+L/Kh), where Kc and Kh are the dissociation constants of unlabelled (cold) and labelled (hot) ligand respectively, and L is the concentration of radioligand used.

| maximal binding capacity of 125I-GRP(14-27) (radioligand on Swiss 3T3 cells) [pm/mg protein] | Kd [nM] | IC50 [nM] | Ka [nM⁻¹] | SMILES |
| --- | --- | --- | --- | --- |
| 0.769 | – | – | – | CSCC[C@H](NC(=O)[C@H](CC(C)C)NC(=O)[C@H](Cc1c[nH]cn1)NC(=O)CNC(=O)[C@@H](NC(=O)[C@H](C)NC(=O)[C@H](Cc1c[nH]c2ccccc12)NC(=O)[C@H](Cc1c[nH]cn1)NC(=O)[C@H](CC(N)=O)NC(=O)CNC(=O)[C@H](CCCNC(=N)N)NC(=O)[C@@H]1CCCN1C(=O)[C@H](Cc1ccc(O)cc1)NC(=O)[C@@H](N)CCSC)C(C)C)C(N)=O [125I-GRP (14-27), reference compound] |
| – | 22 | 25.3 | – | CC(C)C[C@@H](CN1Cc2[nH]c3ccccc3c2C[C@H]1C(N)=O)NC(=O)[C@H](Cc1c[nH]cn1)NC(=O)CNC(=O)[C@@H](NC(=O)[C@H](C)NC(=O)[C@H](Cc1c[nH]c2ccccc12)NC(=O)[C@H](CCC(N)=O)NC(=O)[C@H]1Cc2c([nH]c3ccccc23)CN1)C(C)C [Peptide 26, D--Tpi--Gln--Trp--Ala--Val--Gly--His--Leu-psi-Tpi--NH2] |
| – | 1 | 1.15 | – | CC(C)C[C@@H](CN[C@@H](Cc1ccccc1)C(N)=O)NC(=O)[C@H](Cc1c[nH]cn1)NC(=O)CNC(=O)[C@@H](NC(=O)[C@H](C)NC(=O)[C@H](Cc1c[nH]c2ccccc12)NC(=O)[C@H](CCC(N)=O)NC(=O)[C@H](N)Cc1c[nH]c2ccccc12)C(C)C [Peptide 10, D--Trp--Gln--Trp--Ala--Val--Gly--His--Leu-psi-Phe--NH2] |
| – | 8 | 9.2 | – | CC(C)C[C@@H](CN[C@@H](CC(C)C)C(N)=O)NC(=O)[C@H](Cc1c[nH]cn1)NC(=O)CNC(=O)[C@@H](NC(=O)[C@H](C)NC(=O)[C@H](Cc1c[nH]c2ccccc12)NC(=O)[C@H](CCC(N)=O)NC(=O)[C@H]1Cc2c([nH]c3ccccc23)CN1)C(C)C [Peptide 5, D--Tpi--Gln--Trp--Ala--Val--Gly--His--Leu-psi-Leu--NH2] |
| – | 1 | 1.2 | – | CC(C)C[C@@H](CN1Cc2[nH]c3ccccc3c2C[C@H]1C(N)=O)NC(=O)[C@H](Cc1c[nH]cn1)NC(=O)CNC(=O)[C@@H](NC(=O)[C@H](C)NC(=O)[C@H](Cc1c[nH]c2ccccc12)NC(=O)[C@H](CCC(N)=O)NC(=O)[C@H](N)Cc1ccccc1)C(C)C [Peptide 17, D--Phe--Gln--Trp--Ala--Val--Gly--His--Leu-psi-Tpi--NH2] |
| – | – | – | 0.014 | CC(C)C[C@@H](CN[C@@H](CC(C)C)C(N)=O)NC(=O)[C@H](Cc1c[nH]cn1)NC(=O)CNC(=O)[C@@H](NC(=O)[C@H](C)NC(=O)[C@H](Cc1c[nH]c2ccccc12)NC(=O)[C@H](Cc1cn(Cc2ccccc2)cn1)NC(=O)[C@H]1Cc2c([nH]c3ccccc23)CN1)C(C)C [Peptide 8, D--Tpi--His(Bz)--Trp--Ala--Val--Gly--His--Leu-psi-Leu--NH2] (H-[dTpi][His(τ-Bzl)]WAVGH-X2) |
| – | 5 | 5.75 | – | CNC(=O)CC[C@H](NC(=O)[C@H](N)Cc1c[nH]c2ccccc12)C(=O)N[C@@H](Cc1c[nH]c2ccccc12)C(=O)N[C@@H](C)C(=O)N[C@H](C(=O)NCC(=O)N[C@@H](Cc1c[nH]cn1)C(=O)N[C@H](CN[C@@H](Cc1ccccc1)C(N)=O)CC(C)C)C(C)C [Peptide 11, D--Trp--Glu(MeNH)--Trp--Ala--Val--Gly--His--Leu-psi-Phe--NH2] |
| – | 526 | 605 | – | CC(C)C[C@@H](CN[C@@H](Cc1c[nH]c2ccccc12)C(N)=O)NC(=O)[C@H](Cc1c[nH]cn1)NC(=O)CNC(=O)[C@@H](NC(=O)[C@H](C)NC(=O)[C@H](Cc1c[nH]c2ccccc12)NC(=O)[C@H](CCC(N)=O)NC(=O)[C@H](N)Cc1c[nH]c2ccccc12)C(C)C [Peptide 29, D--Trp--Gln--Trp--Ala--Val--Gly--His--Leu-psi-Trp--NH2] |
| – | – | – | 0.014 | CC(C)C[C@@H](CN[C@@H](Cc1ccccc1)C(N)=O)NC(=O)[C@H](Cc1c[nH]cn1)NC(=O)CNC(=O)[C@@H](NC(=O)[C@H](C)NC(=O)[C@H](Cc1c[nH]c2ccccc12)NC(=O)[C@H](CCC(N)=O)NC(=O)[C@H]1Cc2c([nH]c3ccccc23)CN1)C(C)C [Peptide 12, D--Tpi--Gln--Trp--Ala--Val--Gly--His--Leu-psi-Phe--NH2] (HELM PEPTIDE1{[O=C([C@H]1Cc2c([nH]c3ccccc23)CN1)[*:2]].Q.W.A.V.G.H.[CC(C)C[C@@H](CN[C@@H](Cc1ccccc1)C(N)=O)N[*:1]]}$$$$V2.0) |
| – | 0.9 | 1.14 | – | CC(C)C[C@@H](CN1Cc2[nH]c3ccccc3c2C[C@H]1C(N)=O)NC(=O)[C@H](Cc1c[nH]cn1)NC(=O)CNC(=O)[C@@H](NC(=O)[C@H](C)NC(=O)[C@H](Cc1c[nH]c2ccccc12)NC(=O)[C@H](CCC(N)=O)NC(=O)[C@@H]1Cc2c([nH]c3ccccc23)CN1)C(C)C [Peptide 22, Tpi--Gln--Trp--Ala--Val--Gly--His--Leu-psi-Tpi--NH2] |
| – | 4 | 4.6 | – | CC(C)C[C@@H](CN1Cc2[nH]c3ccccc3c2C[C@H]1C(N)=O)NC(=O)[C@H](Cc1c[nH]cn1)NC(=O)CNC(=O)[C@@H](NC(=O)[C@H](C)NC(=O)[C@H](Cc1c[nH]c2ccccc12)NC(=O)[C@H](CCC(N)=O)NC(=O)[C@H](N)Cc1c[nH]c2ccccc12)C(C)C [Peptide 18, D--Trp--Gln--Trp--Ala--Val--Gly--His--Leu-psi-Tpi--NH2] |
| – | – | – | 0.758 ± 0.23 | CSCC[C@H](NC(=O)[C@H](CC(C)C)NC(=O)[C@H](Cc1c[nH]cn1)NC(=O)CNC(=O)[C@@H](NC(=O)[C@H](C)NC(=O)[C@H](Cc1c[nH]c2ccccc12)NC(=O)[C@H](Cc1c[nH]cn1)NC(=O)[C@H](CC(N)=O)NC(=O)CNC(=O)[C@H](CCCNC(=N)N)NC(=O)[C@@H]1CCCN1C(=O)[C@H](Cc1ccc(O)cc1)NC(=O)[C@@H](N)CCSC)C(C)C)C(N)=O [GRP(14-27), reference compound] |
| – | 4 | 5.15 | – | CC(C)C[C@@H](CN[C@@H](Cc1c[nH]c2ccccc12)C(N)=O)NC(=O)[C@H](Cc1c[nH]cn1)NC(=O)CNC(=O)[C@@H](NC(=O)[C@H](C)NC(=O)[C@H](Cc1c[nH]c2ccccc12)NC(=O)[C@H](CCC(N)=O)NC(=O)[C@H]1Cc2c([nH]c3ccccc23)CN1)C(C)C [Peptide 30, D--Tpi--Gln--Trp--Ala--Val--Gly--His--Leu-psi-Trp--NH2] |
| – | 10.6 | 12.2 | – | CC(C)C[C@@H](CN[C@@H](CC(C)C)C(N)=O)NC(=O)[C@H](Cc1c[nH]cn1)NC(=O)CNC(=O)[C@@H](NC(=O)[C@H](C)NC(=O)[C@H](Cc1c[nH]c2ccccc12)NC(=O)[C@H](CCC(N)=O)NC(=O)[C@H](N)Cc1c[nH]c2ccccc12)C(C)C [Peptide 2, D--Trp--Gln--Trp--Ala--Val--Gly--His--Leu-psi-Leu--NH2] |
| – | 8 | 9.16 | – | CC(C)C[C@@H](CN[C@@H](Cc1c[nH]c2ccccc12)C(N)=O)NC(=O)[C@H](Cc1c[nH]cn1)NC(=O)CNC(=O)[C@@H](NC(=O)[C@H](C)NC(=O)[C@H](Cc1c[nH]c2ccccc12)NC(=O)[C@H](CCC(N)=O)NC(=O)[C@H](N)Cc1ccccc1)C(C)C [Peptide 28, D--Phe--Gln--Trp--Ala--Val--Gly--His--Leu-psi-Trp--NH2] |

| SMILES | maximal binding capacity of 125I-GRP(14-27) (radioligand on Swiss 3T3 cells) [pm/mg protein] | Kd [nM] | IC50 [nM] | Ka [nM⁻¹] |
| --- | --- | --- | --- | --- |
| COc1ccc(CCC(=O)N[C@@H](CCC(N)=O)C(=O)N[C@@H](Cc2c[nH]c3ccccc23)C(=O)N[C@@H](C)C(=O)N[C@H](C(=O)NCC(=O)N[C@@H](Cc2c[nH]cn2)C(=O)N[C@H](CN[C@@H](Cc2c[nH]c3ccccc23)C(N)=O)CC(C)C)C(C)C)cc1 [Peptide 27, Mpp--Gln--Trp--Ala--Val--Gly--His--Leu-psi-Trp--NH2] (HELM PEPTIDE1{[COc1ccc(CCC(=O)[*:2])cc1].Q.W.A.V.G.H.[CC(C)C[C@@H](CN[C@@H](Cc1c[nH]c2ccccc12)C(N)=O)N[*:1]]}$$$$V2.0) | – | – | – | 0.013 |
